# Measured values reported in ChEMBL document CHEMBL3507680, “University of Dundee, Gates Library screen for HepG2 cell viability”.
# “And” between values parts separate entries of the source, which are not always exact repeats. Equal values may be shown once.
# Assay: Human HepG2 cell viability assay in 384 well format
# Type: toxicity, cell-based
# Set-up: dose 125 nL, time 70.5 hour; cytotoxicity at 70.5 h: concentration not given beside the values
# Conditions: HepG2 cells, read-out: Inhibition
row,Compound,cytotoxicity at 70.5 h
1,Cc1cc(CN2C[C@@H]3COC[C@]3(COCC(=O)N(C)C)C2)no1,-4.13%
2,C[C@@H]1CN(C(=O)[C@H]2CCCO2)C[C@]12CCN(c1ccsc1)C2=O,-11.7%
3,COCCO[C@H]1CCN(Cc2cccnc2)[C@H]1Cc1cccnc1,17.5%
4,O=C(Cn1cccn1)N1CCC(c2nnc(C(F)(F)F)o2)CC1,30.9%
5,O=C(Nc1nc2c(s1)CN(C(=O)NCc1cccs1)CC2)C1CC1,-9.79%
6,COc1ccc(C(=O)NCc2cc(N3CCOCC3)ncn2)o1,17.5%
7,Cc1noc(C)c1CSCc1nc(N)c2ccccc2n1,0.626%
8,Cc1cc(NC(=O)CN2CCc3cnc(C)nc3C2)on1,35.8%
9,Cc1nc(CNC(=O)Nc2ccc3c(ccn3CCN(C)C)c2)no1,-2.87%
10,O=C(CCc1cn[nH]c1)N1CCC(C2CCN(c3ncccn3)CC2)C1 (stereo not drawn),0.44%
11,Cc1ccc(F)c(NS(=O)(=O)c2cc(C(=O)O)oc2C)c1,-10%
12,CCN(CC)S(=O)(=O)NC(=O)c1cc(C)n(-c2ccccc2)n1,10.6%
13,O=C1CC[C@]2(CC[C@@H](NC3CCOCC3)CC2)N1Cc1ccccc1,-2.63%
14,CC(C)OC[C@H]1CCC[C@]12CN(S(=O)(=O)c1cccs1)CCO2,-8.77%
15,Cc1cc(C)n(-c2ccc(C(C)NS(N)(=O)=O)cc2)n1 (stereo not drawn),-11.9%
16,Cc1ccc(CN2CCC3(CC2)NC(=O)CC3c2ccccc2)s1 (stereo not drawn),-6.55%
17,Cc1cc(C(=O)Nc2nnn[nH]2)ccc1I,-5.12%
18,Cn1c(C2CC2)nc2cc(NC(=O)C3CC=CC3)ccc21,-5.03%
19,Cc1nc(N2CCCC2)nc2c1CN(C(=O)NC(C)C)CC2,-3.45%
20,O=C(NC(Cc1ccsc1)c1nccs1)C1CC1 (stereo not drawn),-6.11%
21,CCN(CC)C(=O)c1c(Br)cnn1CC,-2.09%
22,CC(Nc1ccc(CC(=O)N(C)C)cc1)C(=O)N(C)CCC#N (stereo not drawn),-12.3%
23,Cc1nc(NCc2ccccc2)cc(C(C)Cn2nc(C)c(C)c2C)n1 (stereo not drawn),3.51%

row,Compound,cytotoxicity at 70.5 h
1,CN(C)c1cc(C2CCCN2)ccn1 (stereo not drawn),0.143%
2,O=C(CCOc1ccccc1F)N1CCCC(n2cncn2)C1 (stereo not drawn),6.03%
3,CN(Cc1cnn(C)c1)c1nccc(-c2cc(C(=O)O)ccn2)n1,18.1%
4,CN(C1CCCCC1)S(=O)(=O)NCC1Cc2ccccc2O1 (stereo not drawn),-1.4%
5,CCOCC1CN(Cc2cnn(C)c2)Cc2ncn(CC3CC3)c21 (stereo not drawn),23.1%
6,COCCC(=O)N1CCCC1c1csc(Nc2ccccn2)n1 (stereo not drawn),21.7%
7,FC(F)(F)c1ccnc(N2CCC(c3nccn3CC3CC3)CC2)n1,-4.46%
8,CCc1cc(NCc2ccccc2CN2CCCC2)n2ncnc2n1,29.1%
9,CCNC(=O)[C@@H]1CCCN1[C@@H](C(=O)NC)c1ccccc1,-8.33%
10,Cc1ccc(C(=O)N2CCC(c3noc(-c4cccnc4)n3)CC2)cn1,-3.32%
11,CN(C)C1CCC2(CCN(Cc3nccn3C)CC2)c2ccccc21 (stereo not drawn),-4.41%
12,CC(=O)c1cccc(C(=O)N2C[C@@H](CN3CCCCCC3)[C@@H](CO)C2)c1,-5.31%
13,CN(C)C(=O)N1CCC2(CC1)CN(CC1CC1)CC21CCNC1=O (stereo not drawn),0.0936%
14,O=C(CO)N1CCOC2(CCCN(c3ncc(F)cn3)C2)C1 (stereo not drawn),-0.965%
15,O=C(c1nc(Cc2c[nH]c3ccccc23)no1)N1CCOCC1,-3.8%
16,Cc1[nH]ccc1C(=O)N[C@H]1CN(CCO)C[C@@H]1C1CC1,-6.42%
17,O=C(Cc1cccc2ccccc12)N1CCC(Nc2cccnn2)CC1,-7.06%
18,Cc1cn2c(n1)CCC(NS(=O)(=O)c1ccc(C)s1)C2 (stereo not drawn),-1.48%
19,COc1ccc(CN2CCCC(Nc3cccc(F)c3)C2)cc1O (stereo not drawn),-2.89%
20,CCc1c(C)nc(N)nc1N1CCCC(c2nc(CCOC)no2)C1 (stereo not drawn),4.51%
21,CC(C)CNC(=O)C1CC(=O)N(c2n[nH]c3ccccc23)C1 (stereo not drawn),-5.36%
22,CCOc1ccc(S(=O)(=O)NC(=O)CC2CCCO2)cc1 (stereo not drawn),17.8%
23,CCCc1nnc(N2CCC(N3CCCC3)CC2)o1,26%

row,Compound,cytotoxicity at 70.5 h
1,O=C(CC1CC1)N1CCC2(CC1)CN(c1ncccn1)CCO2,-7.66%
2,CCNC(=O)NC(C)c1nc(-c2ccc(Br)cc2)no1 (stereo not drawn),-8.74%
3,NC(=O)c1ccc(=O)n(Cc2cc(Br)ccc2Cl)n1,-5.48%
4,CNc1nc(CNC(=O)Nc2ccccc2-c2noc(C)n2)cs1,7.32%
5,CNc1cc2c(nn1)CCN(C(=O)c1cccc3c1OCCO3)C2,-0.154%
6,CCC[C@@H]1CN(Cc2c[nH]nc2-c2ccc(OC)cc2)C[C@H]1NC(C)=O,-7.5%
7,CCN(CC)c1ccc(CNS(=O)(=O)C2CCOCC2)cc1F,-10.6%
8,COc1ccc(Cl)c(-c2noc3ncn(CCC(=O)O)c(=O)c23)c1,-20.8%
9,CCn1ncc2c1C(COC)CN(Cc1cnn(C)c1)C2 (stereo not drawn),8.92%
10,CS(=O)(=O)NC1CCN(C(=O)c2ccc(Br)cc2)C1 (stereo not drawn),-7.16%
11,CC(C)CCNC(=O)c1csc(NC2CC2)n1,-9.92%
12,CCOc1cc2c(cc1CN1CCC3(CCCNC3=O)C1)CCC2 (stereo not drawn),30%
13,CCc1ncnc2c1CCN(Cc1ccccn1)CC2,28%
14,Cn1cnc2cc(C(=O)N3CCC(c4ccccc4C(=O)O)C3)cnc21 (stereo not drawn),-8.01%
15,Cn1ccnc1CN1CCN(Cc2noc(C3CC3)n2)CC1,-12.6%
16,O=C(CC1CCCC1)N1C[C@@H]2CN(Cc3ccoc3)CCO[C@@H]2C1,-11.5%
17,CCc1ncc(C(=O)N2CCCCC2Cn2cccn2)s1 (stereo not drawn),-7.11%
18,CC(C)(NC(=O)c1cnc(-c2ccccc2F)s1)C(N)=O,-10.3%
19,CC1CN(CCC(=O)NCCc2cccnc2)Cc2ccccc2O1 (stereo not drawn),9.39%
20,Cc1[nH]c2ccccc2c1-c1ccnc(N[C@@H](CO)C(C)C)n1,-3.22%
21,Cc1ccsc1C(=O)N1CCCn2c(nc(CN(C)C)cc2=O)C1,8.58%
22,Cc1cccc2c1ccn2CC(=O)NC[C@@H]1CCCN2CCCC[C@H]12,-6.63%
23,Cc1n[nH]cc1CNC1CCN(c2ccc(F)cc2)CC1,-8.94%

row,Compound,cytotoxicity at 70.5 h
1,COCCNc1c(-c2ccc(Cl)cc2)c(=O)c1=O,-7.26%
2,Cc1ccc(CN2CCCC3(CCCN3S(C)(=O)=O)C2)s1 (stereo not drawn),-8%
3,NC(=O)CN1CCC(c2cc(C(F)(F)F)n3ccnc3n2)CC1,-3.15%
4,CCC(C)N(Cc1cccnc1)Cc1cc2c(cc1Cl)OCO2 (stereo not drawn),-1.59%
5,CCc1ccc(C(=O)NC(C)c2ccc(S(C)(=O)=O)c(F)c2)o1 (stereo not drawn),13.1%
6,COc1cccc2c1OCC(C(=O)NC1CCN(S(C)(=O)=O)CC1)C2 (stereo not drawn),14%
7,CCN(C(=O)CS(=O)(=O)Cc1cc(Cl)c2c(c1)OCCCO2)C1CC1,0.0743%
8,CCc1nnc(C(C)N2CCN(CCC(=O)NC3CC3)CC2)o1 (stereo not drawn),22%
9,CC(C)C1CN(c2ncccn2)CCC(=O)N1Cc1ccc(F)cc1 (stereo not drawn),1.56%
10,CCN1CCC(c2nc3ccc(NC4CCC4)cn3n2)CC1,-4.48%
11,CC(CC(=O)Nc1ccc(C(=O)N(C)C)c(Cl)c1)n1cccc1 (stereo not drawn),7.79%
12,Fc1ccc(CNC2CCN(CCc3ccncc3)CC2)cc1F,-3.84%
13,Cc1sc(CN)nc1-c1ccc(Cl)cc1Cl,5.42%
14,CN1C[C@@H]2CN(C(=O)NCc3cccc(F)c3)CCC[C@]2(C(=O)O)C1,8.66%
15,Cc1nn(C)cc1CN(C)c1nccc(-c2cn(C)nc2C)n1,-0.948%
16,CCn1cnnc1CNC(=O)N(C)Cc1ccc(F)c(F)c1,-5.87%
17,N#Cc1cn(C2CC2)c(=O)n(CC(O)c2ccc(F)cc2)c1=O (stereo not drawn),-16.6%
18,O=C1NCCO[C@H]2CN(C(=O)Cc3cccs3)CC[C@@H]12,-7.13%
19,O=C1NC2(CCN(C(=O)c3ccnnc3)CC2)CC1c1ccccc1 (stereo not drawn),22.9%
20,Cc1nn(C)c2c(=O)n(C(C)C)c(NCC3CCCO3)nc12 (stereo not drawn),-9.24%
21,Cc1nc2[nH]cnc(Nc3cc(C)n(C)n3)c-2n1,-1.58%
22,CCOc1cccc2c1OCC(C(=O)NS(=O)(=O)c1ccc(Cl)s1)=C2,-7.24%
23,N#Cc1ccc(OCCCN2CCc3cncnc3C2)cc1,-0.112%

row,Compound,cytotoxicity at 70.5 h
1,Cc1cc(NC(=O)CCN(CC2CCOC2)C2CC2)no1 (stereo not drawn),-9.35%
2,Cc1cc(C)n(CC2CCCN2C(=O)c2cncnc2C)n1 (stereo not drawn),1.29%
3,CNS(=O)(=O)c1cccc(CNC(=O)c2c(C)oc(C)c2C)c1,22.6%
4,CCCN(CC(F)F)C(=O)CCc1c(C)nc2cc(O)nn2c1C,23.2%
5,CCOC(=O)C1CC2(CCCCC2)N2CCC(=O)N12 (stereo not drawn),-4.11%
6,Cc1noc(Cl)c1CC(=O)NCC(C)(O)c1ccc(F)cc1F (stereo not drawn),10.7%
7,CCOC(=O)CCC(=O)N1CCC(Oc2ncccc2Cl)CC1,-4.05%
8,CCCc1ccc(S(=O)(=O)NC(=O)CCc2cscn2)cc1,4.19%
9,O=S(=O)(NCCC(O)c1cccs1)c1ccccc1Cl (stereo not drawn),-10.8%
10,CC1Cn2c(nc3c2c(=O)[nH]c(=O)n3C)O1 (stereo not drawn),-12.3%
11,CN(Cc1cncnc1)[C@@H]1CN(C(=O)c2ccco2)[C@@H]2CCCO[C@H]12,-3.82%
12,Cc1cccc(CN2CCC3(CC2)CN(c2cnn(C)c2)C(=O)CO3)n1,41.4%
13,CC(=O)N1[C@H](Cn2cncn2)C[C@@H]2CN(Cc3ccncc3)CC[C@@H]21,-3.75%
14,CN(CCS(=O)(=O)c1cc(Cl)ccc1Cl)CC(=O)Nc1cccc(F)c1,-0.61%
15,CC(C)CN1CC(C(=O)NCCOc2ccc3c(c2)OCO3)CC1=O (stereo not drawn),3.51%
16,Cc1ncsc1C(=O)N1CCN(Cc2cscn2)CC1,-1.83%
17,COc1ccc(F)cc1S(=O)(=O)N1CCC(Oc2ccc(Cl)cn2)CC1,-3.49%
18,c1csc(CN2CC[C@H]3C[C@H](c4ccncn4)O[C@@H]3C2)c1,-13.1%
19,Cn1cc(C(=O)OCC(N)=O)c(-c2ccc(F)cc2F)n1,-7.24%
20,O=C(NCC1CC1)[C@H]1C[C@@H]2CCN(Cc3nccs3)C[C@@H]2O1,-2.02%

# Same assay, conditions: hepg2, 70.5 h, 70.5 h
row,Compound,Inhibition
1,Cc1cc(NC(=O)C(C)Cn2cncn2)no1 (stereo not drawn),6.977% and -4.493%
